Assay results reported in patent US5656660A, “Compositions and methods for treating mast-cell mediated conditions” (Arris Pharmaceutical Corporation, priority 1995, dated 1997).

Molecular target: tryptase
Assay: In vitro tryptase inhibition assay
Type: biochemical, human
Settings: tosyl-Gly-Pro-Lys-p-nitroanilide 0.5 mM; 1 h preincubation at room temperature; pH 8.2
Method: The compounds to be assayed (approximately 1 mg) were dissolved in 200 μL dimethylsulfoxide (DMSO) and diluted 1:10 into buffer containing 50 millimolar (mM) Tris-HCl (pH 8.2), 100 mM sodium chloride, and 0.05% polyoxyethylenesorbitan monolaurate (Tween-20°, available from Sigma, St. Louis, Mo.). Seven additional threefold dilutions were made from the initial dilution into the same buffer supplemented with 10% DMSO. Aliquots (50 microliters, μL) from each of the eight dilutions in the series were transferred to individual wells in a 96-well U-bottom microtiter plate. […] The tryptase solution was prepared by placing 60 μg/mL of tryptase into solution with 10 mM MES (2-[N-Morpholino]ethane sulfonic acid) containing 2 mM CaCl2, 20% glycerol and 50 μg/mL heparin. The enzyme reaction was initiated with the addition of the synthetic tripeptide substrate, tosyl-Gly-Pro-Lys-p-nitroanilide (available from Sigma, 25 μL; 0.5 mM final concentration). […] Initial velocity measurements calculated from the progress curves by a kinetic analysis program (BatchKi; Petr Kuzmic, University of Wisconsin, Madison, Wis.) were used to determine apparent inhibition constants for each inhibitor.

Compared with `NCc1ccc(CNC(=O)CNC(=O)OCc2ccc(COC(=O)NCC(=O)NCc3ccc(CN)cc3)cc2)cc1` [Example 1, Bis(p-xylylenediamineglycine)-1,4-benzenedimethanol dicarbamate], `NCc1ccc(NC(=O)CNC(=O)OCc2ccc(COC(=O)NCC(=O)Nc3ccc(CN)cc3)cc2)cc1` [Example 42, Bis((4-aminomethylanilido)glycine)-1,4-benzenedimethanol dicarbamate] is 1400-fold higher in Ki: 0.56 nM for the first, 783 nM for the second.

Compared with `N=C(N)Nc1ccc(CNC(=O)CCNC(=O)OCc2ccc(COC(=O)NCCC(=O)NCc3ccc(NC(=N)N)cc3)cc2)cc1` [Example 3], `N=C(N)Nc1ccc(CNC(=O)CCC(=O)NCc2ccc(CNC(=O)CCC(=O)NCc3ccc(NC(=N)N)cc3)cc2)cc1` [Example 37] is 4.4-fold higher in Ki: 9 nM for the first, 40 nM for the second.

First: N=C(N)Nc1ccc(CNC(=O)[C@@H]2CCCN2C(=O)OCc2ccc(COC(=O)N3CCC[C@H]3C(=O)NCc3ccc(NC(=N)N)cc3)cc2)cc1 [Example 4, Bis((4-quanidylbenzyl)-L-prolineamide-N^α -carbonyl)-1,4-dimethanolbenzene]
Second: C[C@H](NC(=O)OCc1ccc(COC(=O)N[C@@H](C)C(=O)NCc2ccc(NC(=N)N)cc2)cc1)C(=O)NCc1ccc(NC(=N)N)cc1 [Example 5, Bis((4-guanidylbenzyl)-L-alanineamide-N^α -carbonyl)-1,4-dimethanolbenzene]
The Ki of the first is 14-fold higher: 4000 nM for the first, 289 nM for the second.

Compared with `C[C@@H](NC(=O)OCc1ccc(COC(=O)N[C@H](C)C(=O)NCc2ccc(NC(=N)N)cc2)cc1)C(=O)NCc1ccc(NC(=N)N)cc1` [Example 6], `C[C@H](NC(=O)OCc1ccc(COC(=O)N[C@@H](C)C(=O)NCc2ccc(CN)cc2)cc1)C(=O)NCc1ccc(CN)cc1` [Example 13, Bis(p-xylylenediamine-L-alanine)-1,4-benzenedimethanol dicarbamate] is 12-fold lower in Ki: 364 nM for the first, 31 nM for the second.

Compared with `N=C(N)Nc1ccc(CNC(=O)[C@H](Cc2ccccc2)NC(=O)OCc2ccc(COC(=O)N[C@@H](Cc3ccccc3)C(=O)NCc3ccc(NC(=N)N)cc3)cc2)cc1` [Example 7], `C[C@@H](NC(=O)OCc1ccc(COC(=O)N[C@H](C)C(=O)NCc2ccc(CN)cc2)cc1)C(=O)NCc1ccc(CN)cc1` [Example 14, Bis(p-xylylenediamine-D-alanine)-1,4-benzenedimethanol dicarbamate] is 1.6-fold higher in Ki: 227 nM for the first, 366 nM for the second.

First: NCc1ccc(CNC(=O)CC(=O)NCc2ccc(CNC(=O)CC(=O)NCc3ccc(CN)cc3)cc2)cc1 [Example 9, N,N'-Bis(N-(4-aminomethylbenzl)-malonamido)-p-xylylene diamide]
Second: NCc1ccc(CNC(=O)CCCC(=O)NCc2ccc(CNC(=O)CCCC(=O)NCc3ccc(CN)cc3)cc2)cc1 [Example 10]
The Ki of the first is 17-fold higher: 150 nM for the first, 8.8 nM for the second. The second binds more tightly here.

Going from `NCc1cccc(CNC(=O)CCC(=O)NCc2cccc(CNC(=O)CCC(=O)NCc3cccc(CN)c3)c2)c1` [Example 11, N,N'-Bis(N-(3-aminomethylbenzyl)succinamido)-m-xylylene diamide] to `NCc1ccc(CNC(=O)CCC(=O)NCc2ccc(CNC(=O)CCC(=O)NCc3cccc(CN)c3)cc2)cc1` [Example 35, N-(3-Aminomethylbenzylsuccinamido)-N'-(4-aminomethyl-benzylsuccinamido)-p-xylylene diamide], the Ki falls from 127 nM to 19 nM (6.7-fold). The second binds more tightly here.

First: NCc1ccc(C(=O)NCCCC(=O)NCc2ccc(CNC(=O)CCCNC(=O)c3ccc(CN)cc3)cc2)cc1 [Example 12, N,N'-Bis(N-(4-aminomethylbenzamido)-4-aminobutyric)-p-xylylene diamide]
Second: NCc1ccc(CNC(=O)CCCNC(=O)c2ccc(C(=O)NCCCC(=O)NCc3ccc(CN)cc3)cc2)cc1 [Example 15, N,N'-Bis(N-(4-aminomethylbenzyl)butyramido)terephthalamide]
The Ki of the first is 7.8-fold higher: 86 nM for the first, 11 nM for the second. The second binds more tightly here.

Going from `NCc1ccc(C(=O)NCCNC(=O)OCc2ccc(COC(=O)NCCNC(=O)c3ccc(CN)cc3)cc2)cc1` [Example 16, N,N'-Bis(4-aminomethylbenzamidoethylene)-1,4-benzenedimethanol dicarbamate] to `NCc1ccc(C(=O)NCCCNC(=O)OCc2ccc(COC(=O)NCCCNC(=O)c3ccc(CN)cc3)cc2)cc1` [Example 19, N,N'-Bis(4-aminomethylbenzamidopropylene)-1,4-benzenedimethanol dicarbamate], the Ki falls from 396 nM to 5 nM (79-fold).

First: CN(Cc1ccc(CN(C)C(=O)CCCC(=O)NCc2ccc(CN)cc2)cc1)C(=O)CCCC(=O)NCc1ccc(CN)cc1 [Example 17, N,N'-Bis(N-(4-aminomethylbenzyl)glutaramido)-N,N'-bis(methyl)-p-xylylene diamide]
Second: CN(Cc1ccc(CN(C)C(=O)CCC(=O)NCc2ccc(CN)cc2)cc1)C(=O)CCC(=O)NCc1ccc(CN)cc1 [Example 23]
The Ki of the first is 2.8-fold higher: 14 nM for the first, 5 nM for the second. The second binds more tightly here.

First: CN(CC(=O)NCc1ccc(CN)cc1)C(=O)OCc1ccc(COC(=O)N(C)CC(=O)NCc2ccc(CN)cc2)cc1 [Example 18, Bis(p-xylylenediaminesarcosine)-1,4-benzenedimethanol dicarbamate]
Second: CN(Cc1ccc(CN)cc1)C(=O)CCC(=O)NCc1ccc(CNC(=O)CCC(=O)N(C)Cc2ccc(CN)cc2)cc1 [Example 30, N,N,-Bis(N-methyl-N-(4-aminomethylbenzyl)-succinamido)-p-xylylene diamide]
The Ki of the first is 460-fold lower: 5 nM for the first, 2300 nM for the second. The first binds more tightly here.

First: CN(CCCC(=O)NCc1ccc(CN)cc1)C(=O)c1ccc(C(=O)N(C)CCCC(=O)NCc2ccc(CN)cc2)cc1 [Example 20, N,N'-Bis(N-[4-aminomethylbenzyl)butyramido)-N,N'-bis(methyl)terephthalamide]
Second: NCc1ccc(CNC(=O)CCC(=O)Nc2ccc(NC(=O)CCC(=O)NCc3ccc(CN)cc3)cc2)cc1 [Example 39, N,N'-Bis((N-(4-aminomethylbenzyl)succinamido))-p-phenethylenediamide]
The Ki of the first is 18-fold higher: 107 nM for the first, 6 nM for the second. The second binds more tightly here.

First: NC[C@H]1CC[C@H](C(=O)NCCCNC(=O)OCc2ccc(COC(=O)NCCCNC(=O)[C@H]3CC[C@H](CN)CC3)cc2)CC1 [Example 22, N,N'-Bis(trans-4-aminomethylcyclohexyl-1-amido-propylene)-1,4-benzenedimethanol dicarbamate]
Second: NC[C@H]1CC[C@H](C(=O)NCCCCNC(=O)OCc2ccc(COC(=O)NCCCCNC(=O)[C@H]3CC[C@H](CN)CC3)cc2)CC1 [Example 33, N,N'-Bis(trans-4-aminomethyl-cyclohexyl-1-amidobutyl)-1,4-benzene dimethanol dicarbamate]
The Ki of the first is 19-fold higher: 918 nM for the first, 48 nM for the second. The second binds more tightly here.

Going from `NCC1CCC(CNC(=O)CCCC(=O)NCc2ccc(CNC(=O)CCCC(=O)NCC3CCC(CN)CC3)cc2)CC1` (centres unmarked) [Example 24, N,N'-Bis(N-(4-aminomethylcyclohexylmethyl)-glutaramido)-p-xylylene diamide] to `NCC1CCC(CNC(=O)CCC(=O)NCc2ccc(CNC(=O)CCC(=O)NCC3CCC(CN)CC3)cc2)CC1` (centres unmarked) [Example 26, N,N'-Bis(N-(4-aminomethylcyclohexylmethyl)-succinamido)-p-xylylene diamide], the Ki rises from 55 nM to 123 nM (2.2-fold). The first binds more tightly here.

`CN(Cc1ccc(CN(C)C(=O)CCC(=O)NCC2CCC(CN)CC2)cc1)C(=O)CCC(=O)NCC1CCC(CN)CC1` (centres unmarked) [Example 25, N,N'-Bis(methyl)-bis(N-(4-aminomethylcyclohexylmethyl)succinamido)-p-xylylene diamide] and `CN(Cc1ccc(CN(C)C(=O)CCCC(=O)NCC2CCC(CN)CC2)cc1)C(=O)CCCC(=O)NCC1CCC(CN)CC1` (centres unmarked) [Example 27, N,N'-Bis(methyl)-bis(N-(4-aminomethylcyclohexylmethyl)-glutaramido)-p-xylylene didmine] are within 1.5-fold of each other in Ki: 118 nM for the first, 138 nM for the second.

`CC1(C)O[C@@H](C(=O)NCc2ccc(CN)cc2)[C@H](C(=O)NCc2ccc(CNC(=O)[C@@H]3OC(C)(C)O[C@H]3C(=O)NCc3ccc(CN)cc3)cc2)O1` [Example 28, N,N'-Bis(N-(4-aminomethylbenzyl)-dimethyl-2,3-isopropylidenetartaramido)-p-xylylene diamide] and `CN(Cc1ccc(CN)cc1)C(=O)CNC(=O)OCc1ccc(COC(=O)NCC(=O)N(C)Cc2ccc(CN)cc2)cc1` [Example 32] are within 1.5-fold of each other in Ki: 643 nM for the first, 874 nM for the second.

Going from `NCC1CCCC(CNC(=O)CCC(=O)NCc2ccc(CNC(=O)CCC(=O)NCC3CCCC(CN)C3)cc2)C1` (centres unmarked) [Example 29, N,N'-Bis(N-(3-aminomethylcyclohexylmethyl)-succinamido)-p-xylylene diamide] to `NCC1CCC(CNC(=O)CNC(=O)OCc2ccc(COC(=O)NCC(=O)NCC3CCC(CN)CC3)cc2)CC1` (centres unmarked) [Example 31, Bis(1,4-cyclohexyldimethylamineglycine)-1,4-benzenedimethanol dicarbamate], the Ki falls from 1100 nM to 12 nM (92-fold). The second binds more tightly here.

Going from `NCc1ccc(C(=O)NCCCCNC(=O)c2ccc(C(=O)NCCCCNC(=O)c3ccc(CN)cc3)cc2)cc1` [Example 34, N,N'-Bis[4-(aminomethylbenzamido)butyl]-terephthalyldiamide] to `N=C(N)Nc1ccc(CNC(=O)CCCC(=O)NCc2ccc(CNC(=O)CCCC(=O)NCc3ccc(NC(=N)N)cc3)cc2)cc1` [Example 38], the Ki falls from 222 nM to 100 nM (2.2-fold).

`N=C(N)Nc1ccc(CNC(=O)CC(=O)NCc2ccc(CNC(=O)CC(=O)NCc3ccc(NC(=N)N)cc3)cc2)cc1` [Example 36, N,N'-Bis(N-(4-Guanidylbenzylamine)-malonamido)-p-xylylene diamide] and `N=C(N)Nc1ccc(CNC2=CCCC(=O)N2C(=O)OCc2ccc(COC(=O)N3C(=O)CCC=C3NCc3ccc(NC(=N)N)cc3)cc2)cc1` [Example 40, Bis((R,S)-2-(4-guanidinobenzylamino)-2,3-dehydro-6-piperidone)-1,4-benzenedimethanol dicarbamate] are within 1.5-fold of each other in Ki: 682 nM for the first, 463 nM for the second.
